Toxic doses and inconclusive results are not listed. No stated cut-off is given here; in the data, active means T/C of 150% or more; inactive means T/C below 125%.
System: L1210 leukemia ip in BDF1 mice, survival T/C
Assay: NCI In Vivo Anticancer Drug Screen. Data for tumor model L1210 Leukemia (intraperitoneal) in B6D2F1 (BDF1) mice
Details: endpoint: mean survival time, higher = longer survival
Summary of the method: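 Each compound was tested against a transplantable tumor grown in mice. The endpoint was survival, with treated animals benchmarked against vehicle controls as a simple ratio.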

[1] = dose: 50.0 mg/kg/injection, schedule: Q01DX009 (ip), vehicle: Klucel (hydroxypropylcellulose) (HPC)
[2] = dose: 100.0 mg/kg/injection, schedule: Q01DX009 (ip), vehicle: Klucel (hydroxypropylcellulose) (HPC)
[3] = dose: 100.0 mg/kg/injection, schedule: Q04DX003 (ip), vehicle: Klucel (hydroxypropylcellulose) (HPC)
[4] = dose: 200.0 mg/kg/injection, schedule: Q01DX009 (ip), vehicle: Klucel (hydroxypropylcellulose) (HPC)
[5] = dose: 200.0 mg/kg/injection, schedule: Q04DX003 (ip), vehicle: Klucel (hydroxypropylcellulose) (HPC)
[6] = dose: 400.0 mg/kg/injection, schedule: Q04DX003 (ip), vehicle: Klucel (hydroxypropylcellulose) (HPC)
[7] = dose: 100.0 mg/kg/injection, schedule: Q04DX002 (ip), vehicle: Klucel (hydroxypropylcellulose) (HPC)
[8] = dose: 200.0 mg/kg/injection, schedule: Q04DX002 (ip), vehicle: Klucel (hydroxypropylcellulose) (HPC)
[9] = dose: 100.0 mg/kg/injection, schedule: Q01DX001 (ip), vehicle: saline
[10] = dose: 200.0 mg/kg/injection, schedule: Q01DX001 (ip), vehicle: saline
[11] = dose: 400.0 mg/kg/injection, schedule: Q01DX001 (ip), vehicle: saline
[12] = dose: 75.0 mg/kg/injection, schedule: Q01DX001 (ip), vehicle: carboxymethylcellulose (CMC)
[13] = dose: 150.0 mg/kg/injection, schedule: Q01DX001 (ip), vehicle: carboxymethylcellulose (CMC)
[14] = dose: 300.0 mg/kg/injection, schedule: Q01DX001 (ip), vehicle: carboxymethylcellulose (CMC)
[15] = dose: 50.0 mg/kg/injection, schedule: Q01DX001 (ip), vehicle: Klucel (hydroxypropylcellulose) (HPC)
[16] = dose: 100.0 mg/kg/injection, schedule: Q01DX001 (ip), vehicle: Klucel (hydroxypropylcellulose) (HPC)

Measured: T/C

c1ccc([CH2][Sn]([c]2ccccc2)([c]2ccccc2)[c]2ccccc2)cc1
inactive: [1] 100 % of control | [2] 104 % of control | [3] 101 % of control | [4] 98 % of control | [5] 98 % of control | [6] 101 % of control

O=C(O)CCCOc1ccc(Cl)cc1
inactive: [7] 96 % of control | [8] 101 % of control | dose: 400.0 mg/kg/injection, schedule: Q04DX002 (ip), vehicle: Klucel (hydroxypropylcellulose) (HPC) 104 % of control

CC(C)C1OCCO1
inactive: dose: 50.0 mg/kg/injection, schedule: Q01DX009 (ip), vehicle: acetone 92 % of control | dose: 100.0 mg/kg/injection, schedule: Q01DX009 (ip), vehicle: acetone 101 % of control | dose: 200.0 mg/kg/injection, schedule: Q01DX009 (ip), vehicle: acetone 95 % of control

CCOc1ccc(OCC)c(NC(=O)Nc2cc([N+](=O)[O-])ccc2OC)c1
inactive: [1] 114 % of control | [2] 93 % of control | [4] 96 % of control

CC12CCC3c4ccc(Cc5ccc([N+](=O)[O-])cc5)cc4CCC3C1CCC2=O (stereo not given)
inactive: dose: 50.0 mg/kg/injection, schedule: Q01DX001 (ip), vehicle: saline 105 % of control | [9] 100 % of control | [10] 100 % of control | [11] 105 % of control

COc1cccc(N=Nc2c(N)nc(N)nc2N)c1
inactive: [12] 104 % of control | [13] 100 % of control | [14] 109 % of control

CC(C)CC1NC(C)(C)CO1 (stereo not given)
inactive: [12] 102 % of control | [13] 95 % of control | [14] 100 % of control

O=C1NC(=O)C2(N1)C1CC3CC(C1)CC2C3 (stereo not given)
inactive: dose: 100.0 mg/kg/injection, schedule: Q01DX009 (ip), vehicle: alcohol 94 % of control | dose: 100.0 mg/kg/injection, schedule: Q04DX003 (ip), vehicle: alcohol 96 % of control | dose: 200.0 mg/kg/injection, schedule: Q01DX009 (ip), vehicle: alcohol 98 % of control | dose: 200.0 mg/kg/injection, schedule: Q04DX003 (ip), vehicle: alcohol 102 % of control | dose: 400.0 mg/kg/injection, schedule: Q01DX009 (ip), vehicle: alcohol 87 % of control | dose: 400.0 mg/kg/injection, schedule: Q04DX003 (ip), vehicle: alcohol 96 % of control

O=C(O)c1ccc(=O)[nH]c1
inactive: dose: 100.0 mg/kg/injection, schedule: Q01DX009 (ip), vehicle: saline 95 % of control | dose: 100.0 mg/kg/injection, schedule: Q04DX003 (ip), vehicle: saline 107 % of control | dose: 200.0 mg/kg/injection, schedule: Q01DX009 (ip), vehicle: saline 96 % of control | dose: 200.0 mg/kg/injection, schedule: Q04DX003 (ip), vehicle: saline 109 % of control | dose: 400.0 mg/kg/injection, schedule: Q01DX009 (ip), vehicle: saline 95 % of control | dose: 400.0 mg/kg/injection, schedule: Q04DX003 (ip), vehicle: saline 104 % of control

CCCNC(=O)OC/C=C\CC(Cl)(Cl)Cl
inactive: [1] 97 % of control | [2] 96 % of control | [3] 87 % of control | [4] 94 % of control | [5] 94 % of control | [6] 86 % of control

O=C1C=C(C(c2ccccc2)c2ccccc2)C(=O)C=C1NS(=O)(=O)c1ccccc1
inactive: dose: 25.0 mg/kg/injection, schedule: Q01DX001 (ip), vehicle: Klucel (hydroxypropylcellulose) (HPC) 106 % of control | [15] 97 % of control | [16] 95 % of control

CC(C)C(C=NCC(CCN(C)C)(c1ccc2ccccc2c1)C(C)C)(CCN(C)C)c1ccc2ccccc2c1 (stereo not given)
inactive: dose: 6.25 mg/kg/injection, schedule: Q04DX002 (ip), vehicle: saline + alcohol 87 % of control | dose: 12.5 mg/kg/injection, schedule: Q04DX002 (ip), vehicle: saline + alcohol 93 % of control | dose: 25.0 mg/kg/injection, schedule: Q04DX002 (ip), vehicle: saline + alcohol 93 % of control

CCN(CC)CCn1cnc2cc([N+](=O)[O-])ccc21
inactive: dose: 20.0 mg/kg/injection, schedule: Q01DX001 (ip), vehicle: Klucel (hydroxypropylcellulose) (HPC) 101 % of control | dose: 40.0 mg/kg/injection, schedule: Q01DX001 (ip), vehicle: Klucel (hydroxypropylcellulose) (HPC) 98 % of control

CC(C)C(NC(=O)OCc1ccccc1)C(=O)OCc1ccc([N+](=O)[O-])cc1 (stereo not given)
inactive: dose: 100.0 mg/kg/injection, schedule: Q01DX001 (ip), vehicle: other 90 % of control | dose: 200.0 mg/kg/injection, schedule: Q01DX001 (ip), vehicle: other 94 % of control | dose: 400.0 mg/kg/injection, schedule: Q01DX001 (ip), vehicle: other 90 % of control

Cc1ccc(C#N)cc1
inactive: dose: 100.0 mg/kg/injection, schedule: Q01DX009 (ip), vehicle: saline with Tween-80 98 % of control | dose: 100.0 mg/kg/injection, schedule: Q04DX003 (ip), vehicle: saline with Tween-80 94 % of control | dose: 200.0 mg/kg/injection, schedule: Q01DX009 (ip), vehicle: saline with Tween-80 93 % of control | dose: 200.0 mg/kg/injection, schedule: Q04DX003 (ip), vehicle: saline with Tween-80 92 % of control | dose: 400.0 mg/kg/injection, schedule: Q01DX009 (ip), vehicle: saline with Tween-80 98 % of control | dose: 400.0 mg/kg/injection, schedule: Q04DX003 (ip), vehicle: saline with Tween-80 96 % of control

O=C(O)c1cc(Br)cc(I)c1Cl
inactive: [7] 102 % of control | [8] 94 % of control

Cc1ccc(SCCCN)cc1
inactive: dose: 75.0 mg/kg/injection, schedule: Q01DX001 (ip), vehicle: saline 100 % of control | dose: 150.0 mg/kg/injection, schedule: Q01DX001 (ip), vehicle: saline 94 % of control

COC(=O)c1cc(C)c(N)cc1C
inactive: [9] 96 % of control | [10] 104 % of control | [11] 102 % of control

COc1ccc(-n2c(O)c(N=Nc3ccccc3OC)c(=O)n(-c3ccccc3)c2=S)cc1
inactive: [15] 94 % of control | [16] 92 % of control | dose: 200.0 mg/kg/injection, schedule: Q01DX001 (ip), vehicle: Klucel (hydroxypropylcellulose) (HPC) 92 % of control

— PubChem BioAssay AID248 (DTP/NCI, 2004)
